Experimental data as given in PubChem BioAssay AID1963869 (Molecular Pharmacology Branch, DTP, NCI, 2024).

System: KRAS patient-derived spheroids with HUVEC/MSC, viability
Test: Anticancer human tumor 323965-272-R-J2-PDC patient-derived pancreatic carcinoma cell line growth inhibition [KRAS2]
Conditions: for IC50: curve of first compound; for viability, T/C: stronger effect = lower value
Method in brief: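 KRAS-mutant tumor cells were grown as spheroids with HUVEC endothelial cells and human MSCs as stroma. Targeted agents were tested alone and with KRAS pathway inhibitors. Doses started at or near clinical Cmax, or 10 microM, descending half-log.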

[1] = second compound 0.1 µM, first compound 0.0316 µM
[2] = second compound 0.1 µM, first compound 0.1 µM
[3] = second compound 0.1 µM, first compound 0.316 µM
[4] = second compound 0.1 µM, first compound 1 µM
[5] = second compound 0.1 µM, first compound 3.16 µM
[6] = second compound 0.1 µM, first compound 10 µM
[7] = second compound 0.316 µM, first compound 0.0316 µM
[8] = second compound 0.316 µM, first compound 0.1 µM
[9] = second compound 0.316 µM, first compound 0.316 µM
[10] = second compound 0.316 µM, first compound 1 µM
[11] = second compound 0.316 µM, first compound 3.16 µM
[12] = second compound 0.316 µM, first compound 10 µM
[13] = second compound 1 µM, first compound 0.0316 µM
[14] = second compound 1 µM, first compound 0.1 µM
[15] = second compound 1 µM, first compound 0.316 µM
[16] = second compound 1 µM, first compound 1 µM
[17] = second compound 1 µM, first compound 3.16 µM
[18] = second compound 1 µM, first compound 10 µM
[19] = second compound 3.16 µM, first compound 0.0316 µM
[20] = second compound 3.16 µM, first compound 0.1 µM
[21] = second compound 3.16 µM, first compound 0.316 µM
[22] = second compound 3.16 µM, first compound 1 µM
[23] = second compound 3.16 µM, first compound 3.16 µM
[24] = second compound 3.16 µM, first compound 10 µM
[25] = second compound 10 µM, first compound 0.0316 µM
[26] = second compound 10 µM, first compound 0.1 µM
[27] = second compound 10 µM, first compound 0.316 µM
[28] = second compound 10 µM, first compound 1 µM
[29] = second compound 10 µM, first compound 3.16 µM
[30] = second compound 10 µM, first compound 10 µM
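Further: spheroids exposed to agents for 7 days.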
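Wherever viability, T/C is given: 100% = DMSO vehicle control viability.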

## CCNC(=O)CC1N=C(c2ccc(Cl)cc2)c2cc(OC)ccc2-n2c(C)nnc21 (stereo not given) + CC1OCC2(CCN(c3cnc(Sc4ccnc(N)c4Cl)c(N)n3)CC2)C1N
Second compound 0.1 µM
  IC50: 244 nM
Second compound 0.316 µM
  IC50: 146 nM
Second compound 1 µM
  IC50: < 31.6 nM
Second compound 3.16 µM
  IC50: < 31.6 nM
Second compound 10 µM
  IC50: < 31.6 nM
[1]
  viability, T/C: 74.6%
[2]
  viability, T/C: 63.5%
[3]
  viability, T/C: 44.9%
[4]
  viability, T/C: 36.3%
[5]
  viability, T/C: 28.6%
[6]
  viability, T/C: 27.4%
[7]
  viability, T/C: 63.3%
[8]
  viability, T/C: 57.8%
[9]
  viability, T/C: 34.4%
[10]
  viability, T/C: 28%
[11]
  viability, T/C: 25.2%
[12]
  viability, T/C: 22.6%
[13]
  viability, T/C: 45.6%
[14]
  viability, T/C: 35.5%
[15]
  viability, T/C: 27.2%
[16]
  viability, T/C: 22.2%
[17]
  viability, T/C: 11.9%
[18]
  viability, T/C: 7.8%
[19]
  viability, T/C: 16.2%
[20]
  viability, T/C: 20.8%
[21]
  viability, T/C: 14.3%
[22]
  viability, T/C: 13.1%
[23]
  viability, T/C: 6.89%
[24]
  viability, T/C: 4.84%
[25]
  viability, T/C: 16.6%
[26]
  viability, T/C: 16.3%
[27]
  viability, T/C: 14.9%
[28]
  viability, T/C: 8.18%
[29]
  viability, T/C: 6.22%
[30]
  viability, T/C: 3.88%

## COc1cc(Nc2ncc3c(n2)-c2ccc(Cl)cc2C(c2c(F)cccc2OC)=NC3)ccc1C(=O)O + C=CC(=O)N1CCN(c2nc(OCC3CCCN3C)nc3c2CCN(c2cccc4cccc(C)c24)C3)CC1CC#N
Second compound 0.0316 µM
  IC50: < 31.6 nM
Second compound 0.1 µM
  IC50: 49.4 nM
Second compound 0.316 µM
  IC50: < 31.6 nM
Second compound 1 µM
  IC50: < 31.6 nM
Second compound 3.16 µM
  IC50: < 31.6 nM
Second compound 0.0316 µM, first compound 0.0316 µM
  viability, T/C: 60.1%
Second compound 0.0316 µM, first compound 0.1 µM
  viability, T/C: 43.8%
Second compound 0.0316 µM, first compound 0.316 µM
  viability, T/C: 31.4%
Second compound 0.0316 µM, first compound 1 µM
  viability, T/C: 36.3%
Second compound 0.0316 µM, first compound 3.16 µM
  viability, T/C: 46%
Second compound 0.0316 µM, first compound 10 µM
  viability, T/C: 56.2%
[1]
  viability, T/C: 58.1%
[2]
  viability, T/C: 35.9%
[3]
  viability, T/C: 29.7%
[4]
  viability, T/C: 30.7%
[5]
  viability, T/C: 39.4%
[6]
  viability, T/C: 48.8%
[7]
  viability, T/C: 48.5%
[8]
  viability, T/C: 33.3%
[9]
  viability, T/C: 26.6%
[10]
  viability, T/C: 27.8%
[11]
  viability, T/C: 35.8%
[12]
  viability, T/C: 43.5%
[13]
  viability, T/C: 55.3%
[14]
  viability, T/C: 32.6%
[15]
  viability, T/C: 20.4%
[16]
  viability, T/C: 30.5%
[17]
  viability, T/C: 38.6%
[18]
  viability, T/C: 46.6%
[19]
  viability, T/C: 21.1%
[20]
  viability, T/C: 13.2%
[21]
  viability, T/C: 10.3%
[22]
  viability, T/C: 19%
[23]
  viability, T/C: 20.5%
[24]
  viability, T/C: 15.5%

## COc1cc2nccc(Oc3ccc(NC(=O)C4(C(=O)Nc5ccc(F)cc5)CC4)cc3)c2cc1OC + CNCc1ccccc1-c1csc(C(C)Nc2nc(C)nc3cc(OC)c(OC)cc23)c1
Second compound 0.1 µM
  IC50: > 10000 nM
Second compound 0.316 µM
  IC50: > 10000 nM
Second compound 1 µM
  IC50: > 10000 nM
Second compound 3.16 µM
  IC50: 4240 nM
Second compound 10 µM
  IC50: < 31.6 nM
[1]
  viability, T/C: 91.7%
[2]
  viability, T/C: 99.3%
[3]
  viability, T/C: 110%
[4]
  viability, T/C: 101%
[5]
  viability, T/C: 85.2%
[6]
  viability, T/C: 87.2%
[7]
  viability, T/C: 87.2%
[8]
  viability, T/C: 88.7%
[9]
  viability, T/C: 100%
[10]
  viability, T/C: 93.2%
[11]
  viability, T/C: 91.4%
[12]
  viability, T/C: 82%
[13]
  viability, T/C: 105%
[14]
  viability, T/C: 99%
[15]
  viability, T/C: 102%
[16]
  viability, T/C: 101%
[17]
  viability, T/C: 92.6%
[18]
  viability, T/C: 72.7%
[19]
  viability, T/C: 95.4%
[20]
  viability, T/C: 91.8%
[21]
  viability, T/C: 92.2%
[22]
  viability, T/C: 91.6%
[23]
  viability, T/C: 66.5%
[24]
  viability, T/C: 1.54%
[25]
  viability, T/C: 0.33%
[26]
  viability, T/C: 0.3%
[27]
  viability, T/C: 0.27%
[28]
  viability, T/C: 0.75%
[29]
  viability, T/C: 0.33%
[30]
  viability, T/C: 0.34%

## COc1cc(Nc2ncc3c(n2)-c2ccc(Cl)cc2C(c2c(F)cccc2OC)=NC3)ccc1C(=O)O + CC1OCC2(CCN(c3cnc(Sc4ccnc(N)c4Cl)c(N)n3)CC2)C1N
Second compound 0.1 µM
  IC50: 89.9 nM
Second compound 0.316 µM
  IC50: < 31.6 nM
Second compound 1 µM
  IC50: < 31.6 nM
Second compound 3.16 µM
  IC50: < 31.6 nM
Second compound 10 µM
  IC50: < 31.6 nM
[1]
  viability, T/C: 79.5%
[2]
  viability, T/C: 47.3%
[3]
  viability, T/C: 33.8%
[4]
  viability, T/C: 44.3%
[5]
  viability, T/C: 50.6%
[6]
  viability, T/C: 56.2%
[7]
  viability, T/C: 57.2%
[8]
  viability, T/C: 39.9%
[9]
  viability, T/C: 30.8%
[10]
  viability, T/C: 32.6%
[11]
  viability, T/C: 39.1%
[12]
  viability, T/C: 43.8%
[13]
  viability, T/C: 44.9%
[14]
  viability, T/C: 26.6%
[15]
  viability, T/C: 23.4%
[16]
  viability, T/C: 26.6%
[17]
  viability, T/C: 30.4%
[18]
  viability, T/C: 33.7%
[19]
  viability, T/C: 37.2%
[20]
  viability, T/C: 22.2%
[21]
  viability, T/C: 17.7%
[22]
  viability, T/C: 23%
[23]
  viability, T/C: 24.1%
[24]
  viability, T/C: 28.3%
[25]
  viability, T/C: 29.9%
[26]
  viability, T/C: 19.3%
[27]
  viability, T/C: 17.4%
[28]
  viability, T/C: 20.3%
[29]
  viability, T/C: 20.9%
[30]
  viability, T/C: 23.3%
